Measured values taken from patent US20180305341A1 (RAQUALIA PHARMA INC., priority 2015, published 2018).

The compounds below were run against T1, human TRPM8 (Homo sapiens, UniProt Q7Z2W7) (assay: Menthol-induced Ca2+ influx in HEK293 cells stably expressing human TRPM8). Details: 30 microM menthol, read-out: IC50 against TRPM8.
T1 construct: expressed in transfected cells
Type: cell-based
Experimental: Measurement of the Menthol-Induced Ca^2+ Influx in HEK293 Cells Stably Expressing Human TRPM8
A cell-based Ca^2+ influx assay using HEK293 cells stably expressing human TRPM8 is used to identify the activity of compounds.
HEK293 cells stably expressing human TRPM8 are grown in T175 flasks at 37° C. in a 5% CO2 humidified incubator to about 80% confluence. Media composition consists of Dulbecco's Modified Eagle Medium (high glucose), 10% fetal calf serum (FCS), 100 units/mL Penicillin, 100 microg/mL Streptomycin and 600 microg/mL Geneticine. At 24 hours prior to assay, cells are seeded in poly-D-lysine coated 384-well plates (BD FALCON) at a density of 30,000 cells per well in culture medium and grown overnight in 5% CO2 at 37° C. On the assay day, growth media is removed and cells are loaded with 0.5 microM Fluo4-AM (Molecular Probes) and 0.005% Pluronic F-127 dissolved in assay buffer (Hank's balanced salt solution (HBSS), 19.4 mM HEPES pH 7.4, 2.5 mM Probenecid) for 1 hour at room temperature. After washing with assay buffer, the cells are preincubated with various concentrations of the compounds for 5 min. The changes in intracellular calcium concentration by addition of 30 microM menthol are monitored by the cell imaging technology by Hamamatsu Photonics Functional Drug Screening System (FDSS).
The IC50 values for compounds of the present invention are determined from 11-point dose-response studies. Curves are generated using the average of duplicate wells for each data point. Finally, the IC50 values are calculated with the best-fit dose curve determined by XLfit (ID Business Solutions Ltd.).

T1 sequence (Q7Z2W7 whole entry): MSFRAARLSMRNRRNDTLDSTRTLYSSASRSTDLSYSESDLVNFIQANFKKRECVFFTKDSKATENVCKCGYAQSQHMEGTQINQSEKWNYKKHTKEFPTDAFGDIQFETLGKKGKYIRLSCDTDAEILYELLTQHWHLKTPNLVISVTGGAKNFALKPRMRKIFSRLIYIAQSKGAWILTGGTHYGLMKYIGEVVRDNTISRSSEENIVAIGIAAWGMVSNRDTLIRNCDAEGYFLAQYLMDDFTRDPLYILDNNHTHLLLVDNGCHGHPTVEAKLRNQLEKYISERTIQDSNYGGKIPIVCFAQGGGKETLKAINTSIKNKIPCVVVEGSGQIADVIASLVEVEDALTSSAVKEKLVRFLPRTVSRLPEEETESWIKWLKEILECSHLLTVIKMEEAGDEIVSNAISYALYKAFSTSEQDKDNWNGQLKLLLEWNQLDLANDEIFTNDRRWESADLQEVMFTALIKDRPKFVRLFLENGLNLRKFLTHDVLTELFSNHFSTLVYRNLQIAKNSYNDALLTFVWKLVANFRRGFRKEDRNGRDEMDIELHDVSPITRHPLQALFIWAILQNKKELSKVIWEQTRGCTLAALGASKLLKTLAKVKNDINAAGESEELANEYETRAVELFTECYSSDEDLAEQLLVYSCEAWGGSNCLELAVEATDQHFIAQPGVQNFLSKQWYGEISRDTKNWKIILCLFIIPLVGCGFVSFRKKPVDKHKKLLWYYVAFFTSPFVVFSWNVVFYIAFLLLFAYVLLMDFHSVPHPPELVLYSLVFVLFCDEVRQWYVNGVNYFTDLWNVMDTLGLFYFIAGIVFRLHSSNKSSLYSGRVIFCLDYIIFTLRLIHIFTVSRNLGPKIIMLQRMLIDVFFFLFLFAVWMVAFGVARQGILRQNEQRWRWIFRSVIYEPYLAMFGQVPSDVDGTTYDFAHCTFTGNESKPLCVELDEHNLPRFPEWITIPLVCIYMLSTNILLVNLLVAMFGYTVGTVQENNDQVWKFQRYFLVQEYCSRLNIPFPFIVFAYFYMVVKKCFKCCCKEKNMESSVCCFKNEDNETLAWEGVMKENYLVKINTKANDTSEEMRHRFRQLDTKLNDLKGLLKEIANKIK

`CC1=NC2(CCC(F)(F)CC2)C(=O)N1CC(=O)c1ccc(Oc2cccnn2)cc1` [Example 1] and `CCC1=NC2(CCC(F)(F)CC2)C(=O)N1CC(=O)c1ccc(Oc2cccnn2)cc1` [Example 3, 2-ethyl-8,8-difluoro-3-(2-oxo-2-(4-(pyridazin-3-yloxy)phenyl)ethyl)-1,3-diazaspiro[4.5]dec-1-en-4-one] cannot be ordered by IC50: less than 50 nM for the first, less than 50 nM for the second.

`CC1=NC2(CCCCC2)C(=O)N1CC(=O)c1ccc(-n2c(C)nc3ccccc32)cc1` [Example 2, 2-methyl-3-(2-(4-(2-methyl-1H-benzo[d]imidazol-1-yl)phenyl)-2-oxoethyl)-1,3-diazaspiro[4.5]dec-1-en-4-one] and `CC1=NC2(CCC(F)(F)CC2)C(=O)N1CC(=O)c1ccc(-n2c(C)nc3ccccc32)cc1` [Example 5, 8,8-difluoro-2-methyl-3-(2-(4-(2-methyl-1H-benzo[d]imidazol-1-yl)phenyl)-2-oxoethyl)-1,3-diazaspiro[4.5]dec-1-en-4-one] cannot be ordered by IC50: less than 50 nM for the first, less than 50 nM for the second.

`CC1=NC2(CCC(F)(F)CC2)C(=O)N1CC(=O)c1ccc(-c2nnccc2C)cc1` [Example 4, 8,8-difluoro-2-methyl-3-(2-(4-(4-methylpyridazin-3-yl)phenyl)-2-oxoethyl)-1,3-diazaspiro[4,5]dec-1-en-4-one] and `CC1=NC2(CCC(F)(F)CC2)C(=O)N1CC(=O)c1ccc(-n2c(C)nc3cccnc32)cc1` [Example 6, 8,8-difluoro-2-methyl-3-(2-(4-(2-methyl-3H-imidazo[4,5-b]pyridin-3-yl)phenyl)-2-oxoethyl)-1,3-diazaspiro[4.5]dec-1-en-4-one] cannot be ordered by IC50: less than 100 nM for the first, less than 50 nM for the second.
